Data as given in patent US10329309B2, “3-(3H-imidazo[4,5-B]pyridin-2-yl)-1H-pyrazolo[4,3-B]pyridines and therapeutic uses thereof” (Samumed, LLC, priority 2015, dated 2019).

How the values were obtained:
Type in all cases: cell-based
[1] = system: primary human mesenchymal stem cells (hMSCs); assay: Induction of chondrogenesis in primary human mesenchymal stem cells (nodule imaging, Rhodamine B/Nile Red); details: hMSC chondrogenesis; for Emax: TGF-β3 as positive control, read-out: Max. Activity as % TGF-β3 activity; for EC50: concentration required to induce 50% levels of chondrogenesis vs TGF-β3, read-out: Conc (nM) of 50% TGF-β3 activity
Description: Representative compounds were screened using primary human mesenchymal stem cells (hMSCs) to determine their ability to induce chondrogenesis (process by which cartilage is developed).
Primary human mesenchymal stem cells (hMSCs) were purchased from Lonza (Walkersville, Md.) and expanded in Mesenchymal Stem Cell Growth Media (Lonza). Cells between passage 3 and 6 were used for the experiments.
Each compound was dissolved in DMSO as a 10 mM stock and used to prepare compound source plates. For the 96 well assay, serial dilution (1:3, 6-point dose-response curves from 2700 nM to 10 nM) and compound transfer was performed using the ECHO 550 (Labcyte, Sunnyvale, Calif.) into 96-well clear bottom assay plates (Greiner Bio-One) with appropriate DMSO backfill for a final DMSO concentration of 0.03%. hMSCs were plated at 20,000 cells/well in 250 μL/well Incomplete Chondrogenic Induction Medium (Lonza; DMEM, dexamethasone, ascorbate, insulin-transferrin-selenium [ITS supplement], gentamycin-amphotericin [GA-1000], sodium pyruvate, proline and L-glutamine). TGF-−3 (10 ng/mL) was used as a positive control for differentiation while negative control wells were treated with 75 nL DMSO for normalization and calculating EC50 values. For the 384 well assay, serial dilution (1:3, 8-point dose-response curves from 5000 nM to 2.2 nM) and compound transfer was performed using the ECHO 550 (Labcyte, Sunnyvale, Calif.) into 384-well clear bottom assay plates (Greiner Bio-One) with appropriate DMSO backfill for a final DMSO concentration of 0.03%. hMSCs were plated at 8,000 cells/well in 80 μL/well Incomplete Chondrogenic Induction Medium (Lonza; DMEM, dexamethasone, ascorbate, insulin-transferrin-selenium [ITS supplement], gentamycin-amphotericin [GA-1000], sodium pyruvate, proline and L-glutamine). TGF-β3 (10 ng/mL) was used as a positive control for differentiation while negative control wells were treated with 25 nL DMSO for normalization and calculating EC50 values. Cells were incubated at 37° C. and 5% CO2 for 6 days. To image chondrogenic nodules, the cells were fixed using 4% formaldehyde (Electron Microscopy Sciences), and stained with 2 μg/mL Rhodamine B (Sigma-Aldrich) and 20 μM Nile Red (Sigma-Aldrich) [Johnson K., et. al, A Stem Cell-Based Approach to Cartilage Repair, Science, (2012), 336(6082), 717-721]. The nodules imaged (25 images per well for 96 well plates and 9 images per well for 384 well plates at 10× magnification) by excitation at 531 nm and emission at 625 nm and quantified using the CellInsight CX5 (Thermo Scientific). Area of nodules in each well was normalized to the average of 3 DMSO treated wells on the same plate using Excel (Microsoft Inc.). The normalized averages (fold change over DMSO) of 2 or 3 replicate wells for each compound concentration were calculated. Due to solubility limitations of some of the compounds, curve fitting was incomplete leading to inaccurate EC50 determinations.
Using TGF-β3 as a positive control, the concentration of representative compounds required to induce 50% levels of chondrogenesis is reported. In addition, the maximum activity of each compound and the respective dose that each compound reached maximum chondrogenesis activity is reported.

[2] = system: IL-6 (THP-1 cells); assay: Inhibition of IL-6 in LPS-stimulated THP-1 monocytes (HTRF); details: Homo sapiens; for EC50: LPS 500 ng/mL, IL-6 by HTRF; for inhibition at 10 µM: LPS stimulated, IL-6, at 10 μM, read-out: percent inhibition at 10 μM (given for EC50 of >10 μM)
In short: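 IL-6 release was read as the HTRF 665/620 nm ratio after 22 h of 500 ng/mL LPS at 37 °C. Before stimulation, THP-1 cells kept 24 h in 1% FBS were exposed 2 h to a 10-point 1:3 compound series starting at 10 μM, in 0.1% DMSO. Four-parameter EC50s came from DMSO-normalized duplicates, with % inhibition at 10 μM reported beyond 10 μM.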

[3] = system: SW480 colon cancer cells; assay: Cell viability assay (CellTiter-Blue), four days; details: Homo sapiens, 96 h; for EC50: CellTiter-Blue cell viability; for inhibition at 10 µM: read-out: percent inhibition at 10 μM (given for EC50 of >10 μM)
In short: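 Resazurin reduction (Ex 560/Em 590 nm, ~3 h reagent incubation) served as the viability read-out after SW480 cells were treated for four days at 37 °C. Doses ran from 10 μM down to 0.0045 μM in eight 1:3 steps. Curves fitted non-linearly for EC50, else % inhibition at 10 μM reported.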

| SMILES | Emax [1] | EC50 [2] | inhibition at 10 µM [2] | EC50 [3] | inhibition at 10 µM [3] | EC50 [1] |
| --- | --- | --- | --- | --- | --- | --- |
| CN(C)c1cncc(-c2ccc3[nH]nc(-c4nc5c(N6CCCCC6)ccnc5[nH]4)c3n2)c1 [Compound 175, N,N-dimethyl-5-(3-(7-(piperidin-1-yl)-3H-imidazo[4,5-b]pyridin-2-yl)-1H-pyrazolo [4,3-b]pyridin-5-yl)pyridin-3-amine] | 42% | > 10 µM | 27.6% | > 10 µM | 13.6% | – |
| Cc1cn(-c2ccnc3[nH]c(-c4n[nH]c5ccc(-c6cncc(NC(=O)C7CCC7)c6)nc45)nc23)cn1 [Compound 217, N-(5-(3-(7-(4-methyl-1H-imidazol-1-yl)-3H-imidazo[4,5-b]pyridin-2-yl)-1H-pyrazolo[4,3-b]pyridin-5-yl)pyridin-3-yl)cyclobutanecarboxamide] | 69% | > 10 µM | 35.6% | > 10 µM | 2.1% | 300 nM |
| CCC(=O)Nc1cncc(-c2ccc3[nH]nc(-c4nc5c(-c6cccc(F)c6)ccnc5[nH]4)c3n2)c1 [Compound 1, N-(5-(3-(7-(3-fluorophenyl)-3H-imidazo[4,5-b]pyridin-2-yl)-1H-pyrazolo [4,3-b]pyridin-5-yl)pyridin-3-yl)propionamide] | 29% | > 10 µM | 3.5% | > 10 µM | 19.9% | – |
| Fc1ccc(-c2ccnc3[nH]c(-c4n[nH]c5ccc(-c6cncnc6)nc45)nc23)cc1 [Compound 55, 3-(7-(4-Fluorophenyl)-3H-imidazo[4,5-b]pyridin-2-yl)-5-(pyrimidin-5-yl)-1H-pyrazolo[4,3-b]pyridine] | 99% | > 10 µM | 43.9% | 0.171 µM | – | 30 nM |
| CN1CCN(c2ccnc3[nH]c(-c4n[nH]c5ccc(-c6cncc(N)c6)nc45)nc23)CC1 [Compound 227, 5-(3-(7-(4-methylpiperazin-1-yl)-3H-imidazo[4,5-b]pyridin-2-yl)-1H-pyrazolo[4,3-b]pyridin-5-yl)pyridin-3-amine] | 47% | > 10 µM | 51.9% | > 10 µM | 0% | – |
| CCCCC(=O)Nc1cncc(-c2ccc3[nH]nc(-c4nc5c(-c6ccccn6)ccnc5[nH]4)c3n2)c1 [Compound 159, N-(5-(3-(7-(pyridin-2-yl)-3H-imidazo[4,5-b]pyridin-2-yl)-1H-pyrazolo[4,3-b]pyridin-5-yl)pyridin-3-yl)pentanamide] | 60% | > 10 µM | 33.6% | > 10 µM | 6.7% | 100 nM |
| CCNCc1cncc(-c2ccc3[nH]nc(-c4nc5c(-c6ccccn6)ccnc5[nH]4)c3n2)c1 [Compound 146, N-((5-(3-(7-(pyridin-2-yl)-3H-imidazo[4,5-b]pyridin-2-yl)-1H-pyrazolo[4,3-b]pyridin-5-yl)pyridin-3-yl)methyl)ethanamine] | 28% | > 10 µM | 4.5% | > 10 µM | 23.3% | – |
| Cn1cc(-c2ccc3[nH]nc(-c4nc5c(-c6cccc(F)c6)ccnc5[nH]4)c3n2)cn1 [Compound 508, 3-(7-(3-fluorophenyl)-3H-imidazo[4,5-b]pyridin-2-yl)-5-(1-methyl-1H-pyrazol-4-yl)-1H-pyrazolo[4,3-b]pyridine] | 43% | > 10 µM | 15.5% | > 10 µM | 0% | – |
| CCC(=O)Nc1cncc(-c2ccc3[nH]nc(-c4nc5c(-c6ccsc6)ccnc5[nH]4)c3n2)c1 [Compound 281, N-(5-(3-(7-(thiophen-3-yl)-3H-imidazo[4,5-b]pyridin-2-yl)-1H-pyrazolo[4,3-b]pyridin-5-yl)pyridin-3-yl)propionamide] | 38% | > 10 µM | 25% | > 10 µM | 24.2% | – |
| CC(C)C(=O)Nc1cncc(-c2ccc3[nH]nc(-c4nc5c(-c6cccnc6)ccnc5[nH]4)c3n2)c1 [Compound 93, N-(5-(3-(7-(pyridin-3-yl)-3H-imidazo[4,5-b]pyridin-2-yl)-1H-pyrazolo[4,3-b]pyridin-5-yl)pyridin-3-yl)isobutyramide] | 26% | 0.984 µM | – | > 10 µM | 8.1% | – |
| CCCCC(=O)Nc1cncc(-c2ccc3[nH]nc(-c4nc5c(-c6cc(F)cc(NCCN(C)C)c6)ccnc5[nH]4)c3n2)c1 [Compound 467, N-(5-(3-(7-(3-((2-(dimethylamino)ethyl)amino)-5-fluorophenyl)-3H-imidazo[4,5-b]pyridin-2-yl)-1H-pyrazolo[4,3-b]pyridin-5-yl)pyridin-3-yl)pentanamide] | 71% | > 10 µM | 23% | > 10 µM | 2.7% | 10 nM |
| COc1cncc(-c2ccc3[nH]nc(-c4nc5c(N6CCCCC6)ccnc5[nH]4)c3n2)c1 [Compound 612, 5-(5-Methoxypyridin-3-yl)-3-(7-(piperidin-1-yl)-3H-imidazo[4,5-b]pyridin-2-yl)-1H-pyrazolo[4,3-b]pyridine] | – | > 10 µM | 44.6% | > 10 µM | 6.1% | – |
| c1cc(-c2ccnc3[nH]c(-c4n[nH]c5ccc(-c6cnccn6)nc45)nc23)ccn1 [Compound 584, 5-(Pyrazin-2-yl)-3-(7-(pyridin-4-yl)-3H-imidazo[4,5-b]pyridin-2-yl)-1H-pyrazolo[4,3-b]pyridine] | – | > 10 µM | 22% | > 10 µM | 10.8% | – |
| O=C(Nc1cncc(-c2ccc3[nH]nc(-c4nc5c(-c6ccccn6)ccnc5[nH]4)c3n2)c1)c1ccccc1 [Compound 151, N-(5-(3-(7-(Pyridin-2-yl)-3H-imidazo[4,5-b]pyridin-2-yl)-1H-pyrazolo[4,3-b]pyridin-5-yl)pyridin-3-yl)benzamide] | – | > 10 µM | 39.1% | > 10 µM | 2.7% | – |
| c1cc(N2CCCCC2)c2nc(-c3n[nH]c4ccc(-c5cncc(OCCN6CCCC6)c5)nc34)[nH]c2n1 [Compound 610, 3-(7-(Piperidin-1-yl)-3H-imidazo[4,5-b]pyridin-2-yl)-5-(5-(2-(pyrrolidin-1-yl)ethoxy)pyridin-3-yl)-1H-pyrazolo[4,3-b]pyridine] | – | > 10 µM | 25.3% | > 10 µM | 3.5% | – |
| O=C(Cc1ccccc1)Nc1cncc(-c2ccc3[nH]nc(-c4nc5cccnc5[nH]4)c3n2)c1 [Compound 262, N-(5-(3-(3H-imidazo[4,5-b]pyridin-2-yl)-1H-pyrazolo[4,3-b]pyridin-5-yl)pyridin-3-yl)-2-phenylacetamide] | – | > 10 µM | 17.3% | > 10 µM | 5.5% | – |
